In brackets after ≈: the same amount, converted by molar mass. A value given as a limit tells only on which side of the number the result lay.

For this data set the following is noted: buffer; pH 7.4; 200.0 µM.
With `O=C(CSc1ccccc1)NC1CCCCCC1`, the solubility (kinetic) (commonly solubility judged after dilution from a stock solution rather than from solid) is more than 0.0395 mg/mL.

As for `CC(OC(=O)COc1ccccc1)C(=O)NC1CCCC1` (stereo unspecified), the solubility (kinetic) is more than 0.0437 mg/mL. For `O=C(CSCc1ccccc1Cl)NCCSc1ccccn1`, the kinetic solubility was determined as 0.0504 mg/mL (≈ 143 µM).

As for `O=C(Nc1ccc(Oc2ccsc2C(=O)O)cc1)c1ccccc1`, the kinetic solubility is more than 0.0509 mg/mL. The result for `Cc1oc(S(=O)(=O)N(C)C)cc1C(=O)Nc1ccc(Cl)cc1` reads less than 0.0004 mg/mL; that for `Cc1cc(=O)[nH]c(SCc2ccc(Cl)cc2Cl)n1`, 0.0012 mg/mL (≈ 3.98 µM); that for `O=C(CNC(=O)c1ccco1)NCC(=O)OCc1ccccc1Cl`, 0.0425 mg/mL (≈ 121 µM). `COc1cccc(C(=O)NN2C(=S)N(c3ccccc3)C(=O)C2CC(N)=O)c1` (stereo unspecified) registered a solubility (kinetic) of more than 0.0598 mg/mL. In turn, `O=C1c2cccc3c2N(CCC3)C(=O)C1(F)c1ccccc1` (stereo unspecified) had a solubility (kinetic) of more than 0.0443 mg/mL. The result for `N#C/C(=C/c1ccco1)C(N)=S` reads more than 0.0267 mg/mL; that for `CC(C)(CC(=O)O)CC(=O)NCc1c(Cl)cccc1Oc1ccccc1`, more than 0.0564 mg/mL. The compound `Cc1ccc(NC(=O)Cn2cc(C(=O)C3CC3)c3ccccc32)c(C)c1` registered a kinetic solubility of less than 0.0004 mg/mL. With `O=C(CCC1CCCCC1)NCCN1CCOCC1`, the solubility (kinetic) is more than 0.0403 mg/mL.

With `Cc1cccc(NC(=O)CSc2nc3ccccc3c(=O)n2C)c1`, the solubility (kinetic) worked out at 0.0005 mg/mL (≈ 1.47 µM). The figure for `S=c1[nH]c2cc(Br)cnc2[nH]1` is 0.0344 mg/mL (≈ 150 µM); for `Cc1cc(NC(=O)CS(=O)(=O)c2ccc(Cl)cc2)no1` it is 0.0144 mg/mL (≈ 45.8 µM). The result for `COc1cccc(CNC(=O)CCN2C(=S)NC(C)(C)CC2C)c1` (stereo unspecified) reads more than 0.0524 mg/mL; that for `Cn1c(O)c(C=NCCN2CCOCC2)c(=O)n(C)c1=S`, more than 0.0469 mg/mL; that for `N#Cc1c2ccc(OCC(N)=O)cc2n2ccccc12`, 0.00195 mg/mL (≈ 7.35 µM). Regarding `O=C(CN1C(=O)c2ccccc2C1=O)NC1CCCCC1`, the solubility (kinetic) stood at 0.0334 mg/mL (≈ 117 µM). The figure for `Cc1occc1C(=O)Nc1cccc(Cl)c1Cl` is 0.0045 mg/mL (≈ 16.7 µM); for `COc1ccc(CCC(C)NCCc2ccc(Cl)cc2Cl)cc1` (stereo unspecified) it is 0.0214 mg/mL (≈ 60.7 µM). The compound `COc1ccc2[nH]c(C(=O)N3CCC(Cc4ccccc4)CC3)cc2c1` returned a kinetic solubility of less than 0.0004 mg/mL. The figure for `O=c1[nH]cccc1-c1nc2ccccc2n1Cc1ccc(Cl)cc1` is more than 0.0504 mg/mL; for `CCc1cccc(NS(=O)(=O)c2ccc3c(c2)n(C)c(=O)n3C)c1` it is 0.0034 mg/mL (≈ 9.84 µM). The result for `CCC(NC(=O)C1CCCC1)c1ccc(C)cc1` (stereo unspecified) reads 0.0348 mg/mL (≈ 142 µM); that for `CC(=O)c1ccc(-n2c(C)c(C(C)=O)c3cc(O)ccc32)cc1`, less than 0.0007 mg/mL. `Cl.O=C(CN1CCCCC1)Nc1cccc(Cl)c1`: the solubility (kinetic) came to 0.0336 mg/mL. The figure for `CCN1CCN(C(=O)C(=O)c2c(C)[nH]c3ccccc23)CC1` is 0.0361 mg/mL (≈ 121 µM); for `COc1ccc(C(=O)NCCCNC(=O)c2ccccn2)cc1` it is more than 0.047 mg/mL; for `O=C(CN1C(=O)C2CC=CCC2C1=O)Nc1nc(-c2ccc(F)c(F)c2)cs1` (stereo unspecified) it is 0.0048 mg/mL (≈ 11.9 µM). The result for `Cl.c1ccc2c(N3CCOCC3)c3c(nc2c1)CCC3` reads more than 0.0436 mg/mL. The compound `CC(C(=O)Nc1ccccc1)N(C)Cc1cccs1` (stereo unspecified) came in with a kinetic solubility of 0.0336 mg/mL (≈ 122 µM). For `CCCc1c(C)nc(N2CCN(c3cccc(OC)c3)CC2)[nH]c1=O`, the kinetic solubility was 0.004 mg/mL (≈ 11.7 µM). The compound `Cc1nc(SCc2cccc(C(=O)O)c2)nc2c1CCCC2` showed a solubility (kinetic) of more than 0.0472 mg/mL. The compound `CCOP(=O)(c1ccc(N(C)C)cc1)C(O)c1ccc(OC)cc1` (stereo unspecified) yielded a solubility (kinetic) of 0.0488 mg/mL (≈ 140 µM). `COc1cc2ccccc2cc1C(=O)NCc1ccncc1` registered a kinetic solubility of more than 0.0439 mg/mL.

`CC(C)c1ccc(N(CC(=O)N2CCN(Cc3ccccc3)CC2)S(C)(=O)=O)cc1` yielded a kinetic solubility of 0.0405 mg/mL (≈ 94.3 µM). The figure for `COc1ccccc1C1CCN(Cc2ccc(C)cc2)CC1` is 0.0298 mg/mL (≈ 101 µM); for `CC(C)c1ccc(NC(=O)/C(C#N)=C/c2ccncc2)cc1` it is 0.0046 mg/mL (≈ 15.8 µM); for `CCOc1ccccc1C(=O)N(C)CC(=O)Nc1ccc(OC)cc1` it is more than 0.0514 mg/mL.

The compound `CC1CCN(C(=O)COC(=O)/C=C/c2ccco2)CC1` had a solubility (kinetic) of more than 0.0416 mg/mL. The result for `Cc1ccc(C2C(C#N)=C(N)Oc3cc(N)ccc32)cc1` (stereo unspecified) reads 0.0044 mg/mL (≈ 15.9 µM); that for `CN(C)CC(C)(C)CNS(=O)(=O)c1ccc(Cl)cc1.Cl`, 0.0494 mg/mL; that for `CC1(C)CC(NC(=O)Cc2ccccc2)CC(C)(C)N1.Cl`, more than 0.0466 mg/mL.

Regarding `O=C(NCCNC(=O)c1ccco1)c1ccco1`, the solubility (kinetic) is 0.0305 mg/mL (≈ 123 µM). Compound `COc1ccc2c(c1)C1OCCC1C(c1ccco1)N2` (stereo unspecified) gave a solubility (kinetic) of more than 0.0407 mg/mL. Regarding `CCN(C(=O)Cn1c([N+](=O)[O-])cnc1C)c1ccccc1`, the solubility (kinetic) is more than 0.0432 mg/mL. `Cc1c(N)cc[n+](CC(=O)c2ccccc2)c1C.[Br-]`: the solubility (kinetic) is more than 0.0482 mg/mL. The figure for `NC(=O)c1ccc[n+](CC(=O)NCc2ccc(Cl)cc2)c1.[Cl-]` is more than 0.051 mg/mL; for `COc1ccc(/C(N)=N/OC(=O)CCc2ccccc2)cc1` it is 0.0099 mg/mL (≈ 33.2 µM).

These data come from PubChem BioAssay AID1996.
